Here are results for one molecule from patent US10317395B1, “Ex vivo engineered immune organoids for controlled germinal center reactions” (Cornell University, priority 2015, dated 2019).

This assay concerns CD19+ B cells. As to the kind of experiment: RGD blocking of B cells with Cilengitide. Particulars: 10 or 50 μM Cilengitide, 2 days, 3D organoids; αvβ3 and αvβ5 integrin binding to RGD. It is filed as cell-based, C57BL6 mice. How it is done: Immune organoids were incubated in rinsed and incubated in FACS buffer containing fluorescence-conjugated antibodies and/or live cell stains for 12 hours at cell culture conditions. The samples underwent three rinsing rounds with each one involving aspiration of old medium and incubation in fresh FACS buffer for 1 hour. Each organoid was covered with 1×PBS during imaging with Zeiss 710 confocal microscope (Zeiss). In all flow cytometry experiments we started with same number of naïve B cells, i.e. 20,000 B cells. At each time point, samples were degraded using collagenase and the entire cell suspension (regardless of final cell numbers) was re-suspended in equal volume for all samples and equally divided into 3 separate staining groups for flow cytometry analysis (to stain for CD19, GL7, Fas, IgM, IgG1, and IgE). The entire volume was analyzed for total number of cells. Extracted cells were stained by incubation in FACS buffer containing various combinations of antibodies with 1:1000 dilution for 45 minutes in the dark at 4° C. The antibodies consisted of: FITC-, APC, or PE-Cy7-conjugated anti-mouse CD19, GL7, Fas, CD40L, IgG, and IgM (eBioscience). FACS buffer was prepared using 1×PBS++ with 10% FBS. The cell suspension was rinsed twice using the same buffer prior to low cytometer using BD Accuri™ C6 flow cytometer. Data analysis was performed using FlowJo (Tree Star). […]

“Also recorded” adds a separate entry of the source.

As to `CC(C)[C@H]1C(=O)N[C@@H](CCCN=C(N)N)C(=O)NCC(=O)N[C@@H](CC(=O)O)C(=O)N[C@H](Cc2ccccc2)C(=O)N1C` [Cilengitide], the “change in CD19+ B cells when RGD signaling is blocked” value is recorded as “partial reduction; also recorded: partial but significant decrease”.
